# In patent publication US20260315564A1, “THE USE OF TP3 (THYMOPENTIN ANALOG) BY INCREASING THE ACTIVITY AND NUMBER OF T-CELLS INVOLVED IN THE DEFENSE MECHANISM OF THE IMMUNE SYSTEM OF MAMMALS, FOR THE PREVENTION OR TREATMENT OF DISEASES TO EXTEND THE AVERAGE LIFESPAN” (priority 2023, published 2026):
# Marks after values point to notes of the source that are not given here. Residues, ends and D or L forms follow the SMILES beside them.
# Legend:
# [1] = test system: Antibody production (immunized with BVVT); assay: Antibody production (anti-BVVT titer) in Balb/c nu/nu mice; assay type: in vivo; settings: ip, n = 10/group, control < 3.0
# Experimental: (§1) Rats (Hannover Wistar) were treated (i.p.) within 6-12 hours after birth. Treatments after birth in a single session or in another examination • on the 7th day after the first treatment; • another group was vaccinated 3 times a week after the first day of treatment. • in a subsequent group, the treatments took place over three weeks (9× in total) (10-3,10-5,10-7//10-9, 10-11,10-12,10-13 M/animal, i.p.). • in the fourth test series, the animals were treated with TP fragments at 0, 1, 2, 4, or 5 days of age. The rats were randomly immunized on the 14th day after birth (1% BVVT with 0.5 ml cell suspension, i.p.). Immune responses were measured after 7 days on day 21 of the experiment. 1.2. Determination of anti-BVVT Ab titers (from rat blood samples ex vivo) • with the haemagglutination method (Takátsy and Fürész, 1955) on 96-well plates (Flow). 50 ul of 0.9% NaCl solution was added to each well. The sera (50 μl) were diluted by half dilution in 12 steps, mixed with 25 pμl 2% BVVT cell suspension, and incubated (1 hour at 37 °C). The hemagglutination titers of the sera are determined. Values expressed in logarithmic values refer to total agglutination.
# Mice were treated for 4 weeks 3 times a week (every other day) with TP fragments (10-9, 10-8, 10-7//10-3, 10-2, 10-1 M/animal ip. (Veys et al., 1983) at the end of the treatments ([…]), the mice were immunized (with 0.5 ml 1% BVVT suspension ip. The immune response was expressed in antibody titers as above).
# [2] = test system: Thy1+, Lyt 1+ (helper) and Lyt 2+ (suppressor) cells; assay: Thy1+ cells and helper/suppressor (Lyt 1/Lyt 2) cell ratio in bone marrow and spleen of Balb/c nu/nu mice; assay type: in vivo; settings: for Lyt 1/Lyt 2 (helper/suppressor cell ratio) / Thy1+ (%): 10^-5 M/mice/ip every other day for 3 weeks (9x)
# Experimental: (§2) • D.1/Direct cytotoxicity test/for the detection of Thy, Lyt antigens (Fathman 1979, in Immunol Meth I. Eds. Lefkovits, Pernis, Acad Press, New York, pp. 212-213.) was used. Subpopulation ratios were determined from bone marrow cells, thymus, and spleen cells isolated from the lymphatic organs of mice. The cell suspensions (1.087-1.088 g/cm3) were centrifuged ona density gradient (2000 rpm, 20 minutes), and the cells were washed 3× with RPMI1640 medium containing 0.3% BSA, then adjusted to 107/ml. Thyl, Lyt 1, Lyt2 monoclonal antibodies (McAb/Ando I. (ICRF Human Tumor Immunol. UCM Med Sch. London) were obtained. 25 μl McAb and 25 ul cell suspension were incubated (60′, 40C1), after centrifugation (1250 rpm 10′), the cells were resuspended with 40 μul of diluted (1:50) rabbit complement, then incubated (370C, 60′). The cell suspensions were stained with 1:5 dilution of Eosin Y (Jansen). the ratio of live to non-living cells was determined.
# n=8/group; Treatment: 10^-5 M/mice/ip every other day for 3 weeks (9×/ip.)
# [3] = test system: PFC (plaque-forming cells); assay: PFC (plaque-forming cells) in H. Wistar rats; assay type: in vivo, Hannover Wistar rats (newborn); settings: for PFC (plaque-forming cells): 1x/ip, control 53.9 ± 8.8; for PFC (plaque-forming cells) / number of PFC: n = 12; for number of PFC: 9x (3x3 weeks/ip), control 139 ± 12.7
# Experimental: Rats (Hannover Wistar) were treated (i.p.) within 6-12 hours after birth. Treatments after birth in a single session or in another examination • on the 7th day after the first treatment; • another group was vaccinated 3 times a week after the first day of […]. treatment • in a subsequent group treated over three weeks (9× in total) (10-3,10-5,10-7//10-9, 10-11,10-12, 10-13 M/animal, i.p). • in the fourth test series, the animals were treated with TP fragments at 0, 1, 2, 4, or 5 days of age. The rats were unanimously immunized on the 14th day after birth (1% BVVT with 0.5 ml cell suspension, i.p.). Immune responses were measured after 7 days on day 21 of the experiment.
# as §1
# (§3) 1.3./Determination of the number of plaque-forming cells (PFC) (using rat spleen cells) The chopped splenocytes were placed in a culture medium (Parker 199) and then shaken with a shaker for 1 minute. The cells were suctioned from the surface of the rapidly settling tissue debris. Red blood cells were removed osmotically. Cell suspensions were adjusted to 107/ml. The cell suspensions were mixed with a 15% BVVT cell suspension in a ratio of 2:1. PFC was determined with the mixture using a modified chamber technique according to Channingham et al., 1966). Before filling the chamber, 50 μl of fresh diluted guinea pig serum (1:20) was added. The chambers (2-2/slide) were incubated (370C 45′) after sealing with paraffin, the formed plaques were counted under a microscope (at 400× magnification) within 2 hours Marker tests related to the rejection reaction of an adult thymus-depleted mouse skin graft 1.4./Rejection of skin transplants in nude mice after treatment with TP fragments (Snell et al., Transplantation 5, 492, 1967).
# [4] = test system: Thy 1+, Lyt 1+, Lyt 2+ spleen cells; assay: Spleen cell subpopulations (Thy 1, Lyt 1, Lyt 2) in adult thymus-removed (Tx) mice; assay type: in vivo, C57BL mice (adult thymectomized); settings: male, 1.0 mg/kg/ip, n = 8/group
# Experimental: as §2
# (§4) After thymectomy, mice were treated with doses of 1 mg/kg, i.p. once a week for six weeks. Thy 1+, Lyt1+, and Lyt2+ in the spleen cells of mice at the age of 13 weeks cell proportions were determined based on what was previously described.
# [5] = test system: transplanted skin graft rejection; assay: Rejection of the transplanted skin graft in adult thymus-removed (Tx) mice; assay type: in vivo, C57BL mice (adult thymectomized); settings: for rejection of the transplanted skin graft: n = 8/group
# Experimental: as §3, §4
# 5. The Effect of TP3 was Tested on the Activity of the Immune System by Rejection of Skin Graft
# • in adult thymectomized (Tx) C57BL mice.
smiles,measurement,setting,value
CC(C)[C@H](NC(=O)[C@H](CC(=O)O)NC(=O)[C@H](CCCCN)NC(=O)[C@@H](N)CCCN=C(N)N)C(=O)N[C@@H](Cc1ccc(O)cc1)C(=O)O [TP5] (H-RKDVY-OH),antibody production (titer),[1]; 10^-2 M/mouse (M/eger),26.4 **
same,antibody production (titer),[1]; 10^-3 M/mouse (M/eger),19.8
same,antibody production (titer),[1]; 10^-4 M/mouse (M/eger),11.9
same,antibody production (titer),[1]; 10^-7 M/mouse (M/eger),24.6 **
same,antibody production (titer),[1]; 10^-8 M/mouse (M/eger),19.9 *
same,antibody production (titer),[1]; 10^-9 M/mouse (M/eger),14.5
same,Lyt 1/Lyt 2 (helper/suppressor cell ratio),"[2]; bone marrow (Csontvelő), control 0.97",1.95
same,Thy1+ (%),"[2]; bone marrow (Csontvelő), control 3.7",47.3%
same,Lyt 1/Lyt 2 (helper/suppressor cell ratio),"[2]; spleen (Lép), control 1.10",2.48
same,Thy1+ (%),"[2]; spleen (Lép), control 5.4",71.0%
same,change in the spleen,"[2]; spleen, 10^-5 M/mice/ip, 9x",130%
same,PFC (plaque-forming cells),[3]; 10^-6 M/animal,71
same,number of PFC,[3]; 10^-6 M/animal,159
same,PFC (plaque-forming cells),[3]; 10^-7 M/animal,129*
same,number of PFC,[3]; 10^-7 M/animal,203*
same,PFC (plaque-forming cells),[3]; 10^-8 M/animal,148*
same,number of PFC,[3]; 10^-8 M/animal,223*
same,PFC (plaque-forming cells),[3]; 10^-9 M/animal,90*
same,number of PFC,[3]; 10^-9 M/animal,126
same,PFC (plaque-forming cells),[3]; 10^-10 M/animal,76
same,number of PFC,[3]; 10^-10 M/animal,185*
same,PFC (plaque-forming cells),[3]; 10^-11 M/animal,75
same,number of PFC,[3]; 10^-11 M/animal,162
same,PFC (plaque-forming cells),[3]; 10^-13 M/animal,67
same,number of PFC,[3]; 10^-13 M/animal,143
same,potency TP3 versus TP5 (PFC),"[3]; comparison, in words",TP3=TP5 potency
same,Lyt1/Lyt2,"[4]; control 1.77, Tx 1.96",1.63
same,Lyt 2 spleen cells,"[4]; control 13.7, Tx 9.6",14.2* %
same,Lyt 1 spleen cells,"[4]; control 24.3, Tx 18.8",23.2* %
same,Thy 1 spleen cells,"[4]; control 30.1, Tx 8.1",21.2%
same,rejection of the transplanted skin graft,"[5]; female Tx C57BL mice, untreated control 14.5, Tx 54.6",23.1**
same,rejection of the transplanted skin graft,"[5]; male Tx C57BL mice, untreated control 27.8, Tx 59.8",41.3
same,recovery of T cells / shortening of skin graft survival time,"[5]; male mice, rank in words",TP5>TP3
